# Patent US20050026836A1, “Composition for the treatment of damaged tissue” (priority 1999, published 2005)
# Tested on: uPA and MMP-3
# Assay: Inhibition of uPA and MMP-3-mediated KGF-2 degradation (dual protease assay)
# Assay type: biochemical, human
# Conditions: uPA and MMP-3 together / KGF-2; inhibitors used (100 μM), alone or in combination
# Experimental: The extent of proteolysis of the growth factors was assayed by incubating TGF-β2, VEGF, PDGF-BB and KGF-2 with the proteases uPA, plasmin, MMP-3 and MMP-13 in assay buffer (either uPA/plasmin buffer, 50 mM tris-HCl, pH 7.4 or MMP assay buffer, 100 mM Tris, 10 mM NaCl, 10 mM CaCl2, 0.05% (w/v) Brij 35, pH 7.5). […] The growth factors were added to the incubation mixture at a final concentration of […], unless otherwise stated.
# The effects of uPA were determined by incubation at a typical final concentration of 25 μg/ml (1500 U/ml) with each growth factor. The effects of plasmin were determined at a typical final concentration of 0.1 mg/ml by incubation with the individual growth factors in assay buffer. MMP-3 and -13 were incubated at a typical final concentration of 10 nM with the growth factors in assay buffer. Dual protease assays carried out with uPA and MMP-3 together were performed in 100 mM Tris, […], 10 mM CaCl2, 0.05% (w/v) Brij 35, pH 7.5. All incubations were performed in siliconised tubes (Sigma Aldrich, UK).
# The inhibitors used in these experiments were compound 9454, compound 9470 and compound 5214. These were dissolved in DMSO at a concentration of 10 mM. Typical final concentrations for these inhibitors were in the range of 100 μM to 10 nM. Aprotinin was dissolved in the Tris buffer at 10 mg/ml and used at a typical concentration of 10 μg/ml. […]
smiles,measurement,value
"COC[C@@H](NC(=O)[C@@H](NC(=O)[C@H](CCCc1ccc(-c2cccc(OC)c2)c(C)c1)CC(=O)O)C(C)(C)C)c1ccccc1 [compound 9454, (3R)-3-({[(1S)-2,2-Dimethyl-1-({[(1S)-2-methoxy-1-phenylethyl]amino}carbonyl)propyl]amino}carbonyl)-6-(3′-methoxy-2-methylbiphen-4-yl)hexanoic acid]",Percentage inhibition of proteolysis,16.3
